According to US7205413B2, “Solvates and polymorphs of ritonavir and methods of making and using the same” (TransForm Pharmaceuticals, Inc., priority 2002, dated 2007):
Entries after “also recorded” stand apart in the source; their conditions may differ. Like-named read-outs stand apart in the source and are kept apart here. One block for each compound: values may come before it.

What was measured:
[1] = Conversion of solid form on contact with aqueous media; assay type: physicochemical
Description: Ritonavir(IV) can be prepared from Ritonavir(III). In a particular method, Ritonavir(III) is contacted with an aqueous medium for an amount of time sufficient to effect the change. For example, Ritonavir(III) placed on a vacuum filter can be washed with deionized water, thereby providing Ritonavir(IV).

[2] = Thermal Gravimetric Analysis (TGA) weight loss; assay type: physicochemical; settings: heated 10° C./min under dry nitrogen
Description: TGA data were collected for each of the forms using a Q500 Thermogravimetric Analyzer (TA Instruments, 109 Lukens Drive, New Castle, Del. 19720), which uses as its control software Advantage for QW-Series, version 1.0.0.78, Thermal Advantage Release 2.0, © 2001 (TA instruments—Waters LLC). An aliquot of the sample was transferred into a platinum sample pan (Pan part # 952019.906; TA Instruments, 109 Lukens Drive, New Castle, Del. 19720). The pan was placed on the loading platform and was then automatically loaded in to the apparatus using the control software. Thermograms were typically obtained by individually heating the sample at 10° C./min from 25° C. to 300° C. under flowing dry nitrogen (compressed nitrogen, grade 4.8, BOC Gases, 575 Mountain Avenue, Murray Hill, N.J. 07974-2082), with a sample purge flow rate of 60 ml/min and a balance purge flow rate of 40 ml/min. Thermal transitions (weight changes) were viewed and analyzed using the analysis software Universal Analysis 2000 for Windows 95/95/2000/NT, version 3.1E; Build 3.1.0.40, © 1991–2001 (TA instruments—Waters LLC), provided with the instrument.
Using the DSC and TGA data obtained for Ritonavir Forms III, IV, and V, and published data for Forms I and II, the different thermal characteristics of each of the forms of Ritonavir were determined. These characteristics are provided below in Table 1: […]

[3] = Conversion of solid form when left in the crystallization mixture; assay type: physicochemical
Experimental: In particular: (A) is a representative X-ray diffraction pattern of Ritonavir(I); (B) is an X-ray diffraction pattern of a sample of Ritonavir(V) after being left in the crystallization mixture for approximately 16 hours, with arrows indicating peaks that signify the presence of Ritonavir(I); and (C) is a representative X-ray diffraction pattern of Ritonavir(V). […] In particular: (A) provides a DSC trace of Ritonavir(I); (B) provides a DSC trace of a sample of Ritonavir(V) after being left in the crystallization mixture for approximately 16 hours, wherein two peaks are observed corresponding to Forms I and V; and (C) is a representative DSC trace of Ritonavir(V). Ritonavir(V) is readily prepared from solvent systems (e.g., binary solvent systems) comprised of an acetate and acetonitrile. In particular, it was discovered that after Ritonavir is dissolved in such a solvent system at an elevated temperature (e.g., about 70° C.), the slow cooling of the resulting mixtures (e.g., at a rate of about 5° C./minute until a temperature of about 5° C. is reached) typically yields crystals of Ritonavir(V), which can be isolated by filtration and optionally dried by air. Specific solvent systems comprise from about 25 to about 50 volume percent acetonitrile.

[4] = crystalline form, oral; cited from earlier work
[5] = data for Forms I and II obtained from Chemburkar; cited from earlier work

Structure (SMILES): CC(C)c1nc(CN(C)C(=O)N[C@H](C(=O)N[C@@H](Cc2ccccc2)C[C@H](O)[C@H](Cc2ccccc2)NC(=O)OCc2cncs2)C(C)C)cs1 (single isomer, unassigned) [Form I, 10-hydroxy-2-methyl-5-(1-methylethyl)-1-[2-(1-methylethyl)-4-thiazolyl]-3,6-dioxo-8,11-bis(phenylmethyl)-2,4,7,12-tetraazatridecan-13-oic acid, 5-thiazolylmethyl ester, [5S-(5R*,8R*,10R*,11R*)]]
bioavailability [4]: not bioavailable; also recorded: poor bioavailability
TGA % weight loss (up to 130° C.) [5]: <0.3%

Structure (SMILES): CC(C)c1nc(CN(C)C(=O)N[C@H](C(=O)N[C@@H](Cc2ccccc2)C[C@H](O)[C@H](Cc2ccccc2)NC(=O)OCc2cncs2)C(C)C)cs1 (single isomer, unassigned) [Form II, 10-hydroxy-2-methyl-5-(1-methylethyl)-1-[2-(1-methylethyl)-4-thiazolyl]-3,6-dioxo-8,11-bis(phenylmethyl)-2,4,7,12-tetraazatridecan-13-oic acid, 5-thiazolylmethyl ester, [5S-(5R*,8R*,10R*,11R*)]]
bioavailability [4]: poor bioavailability
TGA % weight loss (up to 130° C.) [5]: <0.3%

The next lines start with results.

TGA % weight loss (up to 130° C.) ([2]; listed as III): 30—60%
Structure (SMILES): CC(C)c1nc(CN(C)C(=O)N[C@H](C(=O)N[C@@H](Cc2ccccc2)C[C@H](O)[C@H](Cc2ccccc2)NC(=O)OCc2cncs2)C(C)C)cs1 (relative stereo) [Form III, 10-hydroxy-2-methyl-5-(1-methylethyl)-1-[2-(1-methylethyl)-4-thiazolyl]-3,6-dioxo-8,11-bis(phenylmethyl)-2,4,7,12-tetraazatridecan-13-oic acid, 5-thiazolylmethyl ester, [5S-(5R*,8R*,10R*,11R*)]]
form conversion while washed or incubated in aqueous media (DSC trace, FIG. 17) ([1]; washed or incubated in aqueous media): conversion of Ritonavir Form III to Form IV, and subsequently to Form I

form conversion on exposure to an aqueous environment ([1]; aqueous environment, extended time, about 15 to about 60 minutes): converts to Ritonavir Form I
TGA % weight loss (up to 130° C.) ([2]; listed as IV): 4—9%
Structure (SMILES): CC(C)c1nc(CN(C)C(=O)N[C@H](C(=O)N[C@@H](Cc2ccccc2)C[C@H](O)[C@H](Cc2ccccc2)NC(=O)OCc2cncs2)C(C)C)cs1 (relative stereo) [Form IV, 10-hydroxy-2-methyl-5-(1-methylethyl)-1-[2-(1-methylethyl)-4-thiazolyl]-3,6-dioxo-8,11-bis(phenylmethyl)-2,4,7,12-tetraazatridecan-13-oic acid, 5-thiazolylmethyl ester, [5S-(5R*,8R*,10R*,11R*)]]
form conversion on prolonged exposure to an aqueous environment ([1]; prolonged exposure to aqueous environment): converts the compound to Ritonavir Form II

TGA % weight loss (up to 130° C.) ([2]; listed as V): <0.3%
form conversion when left in crystallization mixture (X-ray diffraction, DSC) ([3]; approximately 16 hours at nucleation temperature of 5° C.): formed Ritonavir(I)
Structure (SMILES): CC(C)c1nc(CN(C)C(=O)N[C@H](C(=O)N[C@@H](Cc2ccccc2)C[C@H](O)[C@H](Cc2ccccc2)NC(=O)OCc2cncs2)C(C)C)cs1 (relative stereo) [Form V, 10-hydroxy-2-methyl-5-(1-methylethyl)-1-[2-(1-methylethyl)-4-thiazolyl]-3,6-dioxo-8,11-bis(phenylmethyl)-2,4,7,12-tetraazatridecan-13-oic acid, 5-thiazolylmethyl ester, [5S-(5R*,8R*,10R*,11R*)]]
form conversion on prolonged time in crystallization mixture ([3]; prolonged period of time (hours to days), listed as Ritonavir(V)): form a mixture of Forms V and I; also recorded: provides Ritonavir Form I
